Values belong to the molecule of their own block, whether it stands above or below them.
Columns and labels:
TBL1:β-catenin complex = target: T1, TBL1:β-catenin complex (Homo sapiens, UniProt O60907); assay: Sandwich ELISA capturing the TBL1:β-catenin complex from treated cell lysates; type: cell-based
T1 construct: endogenous in cells; host or cells: HCT15 (A2 also names HCT116)
T1 sequence (O60907 1-577): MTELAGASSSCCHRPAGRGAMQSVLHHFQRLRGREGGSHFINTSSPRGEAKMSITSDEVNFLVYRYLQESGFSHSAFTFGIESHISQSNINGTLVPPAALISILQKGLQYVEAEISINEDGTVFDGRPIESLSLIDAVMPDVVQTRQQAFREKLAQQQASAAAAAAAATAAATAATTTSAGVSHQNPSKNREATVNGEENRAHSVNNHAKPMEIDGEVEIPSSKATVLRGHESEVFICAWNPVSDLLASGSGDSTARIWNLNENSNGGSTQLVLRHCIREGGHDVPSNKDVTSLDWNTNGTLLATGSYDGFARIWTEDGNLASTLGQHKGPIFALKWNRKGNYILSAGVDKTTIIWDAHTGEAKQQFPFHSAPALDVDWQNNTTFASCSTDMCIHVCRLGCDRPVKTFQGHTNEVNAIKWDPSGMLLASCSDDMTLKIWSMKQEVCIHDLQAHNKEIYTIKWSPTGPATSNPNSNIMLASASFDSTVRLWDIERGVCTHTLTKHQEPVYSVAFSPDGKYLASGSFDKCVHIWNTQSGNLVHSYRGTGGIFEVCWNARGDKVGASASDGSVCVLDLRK
Method: HCT 15 cells are incubated with 20 mM LiCl to induce the Wnt pathway. After 24 h fresh medium with 20 mM LiCl and test agent is added at concentration in the range of 0.3 nM to 3 μM for 6 hours at 37° C. Protein lysates are prepared from cells lysed in RIPA buffer containing protease inhibitors, High affinity binding Sandwich Elisa assays were prepared in 96 well Maxisorp plates (NUNC) by coating with 100 μl in each well of unlabeled capture TBL1 antibody (Santa Cruz Biotech) diluted to a final concentration of 2 ug/ml in carbonate/bicarbonate coating buffer, and incubated 18 hours at 4° C. […] The sealed plate was incubated for 2 h at RT, washed 3 times with PBS 0.05% Tween-20, and then the complex and the recombinant protein was detected by antibody against β-catenin (Cell Signaling Tech) and secondary antibody HRP-conjugated (Sigma). Signal was detected by addition of ABTS HRP substrate
(SIGMA), and read with a microplate reader set to 405 nm.
To determine the amount of β-catenin captured, a standard curve was created using recombinant β-catenin (100 fg to 100 ng, Abnova) added instead of cell lysates in the above procedure. Intensity of signal was compared to values generated using test article treated lysates and approximate amount of bound beta catenin determined. […]

HCT116 cells = assay: Cell screening in HCT116 cells (Table 5); type: cell-based; conditions: Homo sapiens, HCT-116
TBL1 = target: T2, TBL1 (Homo sapiens, UniProt O60907); assay: TBL1 inhibition (Table 5); type: binding
T2 construct: full length recombinant human TBL1 or full length recombinant human β-catenin; purchased ABNOVA
T2 sequence (O60907 1-577): T1 sequence (O60907 1-577)
Method: Briefly, for homologous competitive assay, a single concentration of 50 nM of biotinylated compound was added to the wells containing TBL1 recombinant protein, in the presence of various concentrations of unlinked compound (range of 0.1 nM to 10 μM) diluted in binding buffer. The sealed plate was incubated for 2 h at RT, and then processed as described above. For the heterologous competitive binding assay, 75 nM of β-catenin was used in place of the biotinylated compound, and the bounded protein was detected by anti-β-catenin antibody (Cell Signaling Tech) followed by secondary HRP-conjugated antibody.
To determine whether the ability of BC2059 to interfere with TBL1:β-catenin complex formation is due to direct interaction between TBL1 or β-catenin and the compound, we performed saturation binding assays in a in vitro system. High affinity binding Elisa 96 well plate (Maxisorp, Nunc) was coated with 100 ul to each well of full length recombinant human TBL1 or full length recombinant human β-catenin diluted to a final concentration of 1 ug/ml in carbonate/bicarbonate coating buffer, sealed to prevent evaporation, and incubated O/N at 4° C. After washing the plate 3 times with PBS 0.05% Tween-20, and blocking the plate with 200 μl of PBS 1% BSA each well for 1 h at RT, 100 μl of biotinylated compound was added to each well containing the recombinant proteins, at concentration in the range of 0.1 nM to 10 μM, diluted in binding buffer (50 mM TrisHCl pH 7.4, 10 mM MgCl2). The sealed plate was incubated for 2 h at RT, washed 3 times with PBS 0.05% Tween-20, and then the bounded compound was detected by streptavidin-HRP conjugated antibody (Cell Signaling Tech) diluted in blocking buffer. Elisa was developed by addition of ABTS HRP substrate (SIGMA), and the optical density (OD) for each well was read with a microplate reader set to 405 nm. To validate the saturation binding assay, homologous and heterologous competitive binding experiment were performed in an in vitro system. Briefly, for homologous competitive assay, a single concentration of 50 nM of biotinylated compound was added to the wells containing TBL1 recombinant protein, in the presence of various concentrations of unlinked compound (range of 0.1 nM to 10 uM) diluted in binding buffer. The sealed plate was incubated for 2 h at RT, and then processed as described above. For the heterologous competitive binding assay, 75 nM of β-catenin was used in place of the biotinylated compound, and the bounded protein was detected by anti-β-catenin antibody (Cell Signaling Tech) followed by secondary HRP-conjugated antibody.

[1] = target: T3, full length recombinant human β-catenin (Homo sapiens, UniProt P35222); assay: Saturation binding assay with biotinylated compound on coated β-catenin; conditions: biotinylated compound 0.1 nM to 10 μM, 2 h at room temperature
T3 construct: full length recombinant human β-catenin (ABNOVA); purchased ABNOVA
T3 sequence (P35222 1-781): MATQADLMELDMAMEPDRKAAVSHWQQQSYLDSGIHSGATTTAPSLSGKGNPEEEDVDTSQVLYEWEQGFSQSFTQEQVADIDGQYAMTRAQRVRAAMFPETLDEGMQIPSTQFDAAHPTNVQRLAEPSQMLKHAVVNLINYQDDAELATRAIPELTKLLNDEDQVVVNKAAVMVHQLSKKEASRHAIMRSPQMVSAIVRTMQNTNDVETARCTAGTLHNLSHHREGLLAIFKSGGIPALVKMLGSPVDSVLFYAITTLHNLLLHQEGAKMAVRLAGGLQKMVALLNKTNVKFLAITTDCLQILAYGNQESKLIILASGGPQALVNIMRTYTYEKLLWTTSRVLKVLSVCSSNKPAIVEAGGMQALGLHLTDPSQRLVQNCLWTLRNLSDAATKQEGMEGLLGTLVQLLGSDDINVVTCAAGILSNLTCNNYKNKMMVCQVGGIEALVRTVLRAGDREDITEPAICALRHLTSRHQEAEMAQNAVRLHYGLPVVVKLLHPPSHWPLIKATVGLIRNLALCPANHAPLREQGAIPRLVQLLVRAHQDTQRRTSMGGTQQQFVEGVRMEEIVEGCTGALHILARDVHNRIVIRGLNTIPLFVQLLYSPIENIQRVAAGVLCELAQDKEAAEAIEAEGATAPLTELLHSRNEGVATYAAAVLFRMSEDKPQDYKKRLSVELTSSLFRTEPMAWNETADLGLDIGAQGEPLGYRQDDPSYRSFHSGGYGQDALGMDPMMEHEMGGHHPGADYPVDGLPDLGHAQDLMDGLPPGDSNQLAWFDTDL
Method: (§1) Additionally, Compound 1 can be modified to contain a functional group, such as biotin, capable of being attached to a solid support and test agents identified that disrupt the binding of immobilized Compound 1 to TBL1 protein. High affinity binding Elisa 96 well plate (Maxisorp, Nunc) was coated with 100 μl to each well of full length recombinant human TBL1 or full length recombinant human β-catenin (ABNOVA) diluted to a final concentration of 1 μg/ml in carbonate/bicarbonate coating buffer, sealed to prevent evaporation, and incubated O/N at 4° C. […] The sealed plate was incubated for 2 h at room temperature, washed 3 times with PBS 0.05% Tween-20, and then the bounded compound was detected by streptavidin-HRP conjugated antibody (Cell Signaling Tech) diluted in blocking buffer. Elisa was developed by addition of ABTS HRP substrate (SIGMA), and the optical density (OD) for each well was read with a microplate reader set to 405 nm. […]
(§2) To determine whether the ability of BC2059 to interfere with TBL1:β-catenin complex formation is due to direct interaction between TBL1 or β-catenin and the compound, we performed saturation binding assays in a in vitro system. […] The sealed plate was incubated for 2 h at RT, washed 3 times with PBS 0.05% Tween-20, and then the bounded compound was detected by streptavidin-HRP conjugated antibody (Cell Signaling Tech) diluted in blocking buffer. […]

[2] = target: T4, full length recombinant human TBL1 (Homo sapiens, UniProt O60907); assay: Saturation binding assay with biotinylated compound on coated TBL1; conditions: biotinylated compound 0.1 nM to 10 μM, 2 h at room temperature; read-out: IC50 of binding to TBL1 at the equilibrium
T4 construct: full length recombinant human TBL1 or full length recombinant human β-catenin; purchased ABNOVA
T4 sequence (O60907 1-577): T1 sequence (O60907 1-577)
Method: as §1, §2

[3] = target: T5, interaction of β-catenin with TBL1 (Homo sapiens, UniProt O60907); assay: Immunoprecipitation with TBL1 antibody and Western blot for β-catenin; type: cell-based; conditions: HCT15 cells treated for 6 h, Western blot
T5 construct: endogenous in cells; host or cells: HCT15 (A2 also names HCT116)
T5 sequence (O60907 1-577): T1 sequence (O60907 1-577)
Method: FIG. 2 depicts Western blot of an immunoprecipitation using TBL1 antibody. HCT15 cells were incubated with DMSO or indicated concentration of compound for 6 hours. Cell lysates were made and immunoprecipitated with TBL1 antibody. Proteins were separated on an SDS gel, transferred to a membrane and probed with antibodies to β-catenin and to TBL1. Briefly, the HCT15 cell line was seeded at 70% confluence in medium containing 10% FBS and penicillin/streptomycin. After 24 h the cells were treated with Compound 1 for 6 h. Cell lysates were harvested, precleared with protein NG sepharose (Santa Cruz Biotech), and TBL1 was immunoprecipitated using mouse TBL1 antibody (Santa Cruz Biotech) conjugated to protein G sepharose (Santa Cruz Biotech). Immunoprecipitated proteins were resolved on a 10% SDS-PAGE gel followed by transfer of proteins to a nitrocellulose membrane. Western blot analysis was done using antibodies to detect β-catenin protein (BD Transduction Laboratories) and TBL1 protein (Santa Cruz Biotech).

Structure (SMILES): CN(Cc1ccncc1)Cc1ccc(-c2nc(-c3cccnc3)cc(=O)[nH]2)cc1 [Compound 10, 2-(4-((methyl(pyridin-4-ylmethyl)amino)methyl)phenyl)-6-(pyridin-3-yl)pyrimidin-4(3H)-one]
- EC50 (TBL1): 0.28 µM

Structure (SMILES): C[C@@H]1C[C@H](C)CN(S(=O)(=O)c2ccc3c(c2)C(=NO)c2cc(S(=O)(=O)N4C[C@H](C)C[C@H](C)C4)ccc2C3=NO)C1 [Compound 1]
- binding to β-catenin [1]: not β-catenin
- IC50 [2]: 0.02 µM
- disruption of the interaction of β-catenin with TBL1 [3]: able to disrupt the interaction of β-catenin with TBL1
- IC50 (TBL1:β-catenin complex; HCT 15 cells, 20 mM LiCl, test agent 6 hours, read-out: IC50, interference with TBL1 and β-catenin interaction): 0.01 to 0.02 µM

The remaining molecules from weak to strong by EC50 (TBL1), led by results:

- EC50 (TBL1): 102 µM
Structure (SMILES): CC(C)N(C)Cc1ccc(-c2nc(-c3cccnc3)cc(=O)[nH]2)cc1 [Compound 12, 2-(4-((isopropyl(methyl)amino)methyl)phenyl)-6-(pyridin-3-yl)pyrimidin-4(3H)-one]

- EC50 (TBL1): 0.29 µM
Structure (SMILES): Cc1ccc(CN(C)Cc2ccc(-c3nc(-c4cccnc4)cc(=O)[nH]3)cc2)o1 [Compound 11]

- EC50 (TBL1:β-catenin complex; compound 0.3 nM to 3 μM for 6 h, cell lysates, read-out: EC50 μM TBL1: β-Catenine): 0.41 µM
- EC50 (HCT116 cells): 0.127 µM
- EC50 (TBL1): 0.054 µM
Structure (SMILES): CC(Nc1ncnc2[nH]cnc12)c1cnn(-c2ccccc2F)c1 (stereo not shown) [Compound 15, N-(1-(1-(2-fluorophenyl)-1H-pyrazol-4-yl)ethyl)-9H-purin-6-amine]
